Experiment: xn = mol fraction of the nth substance listed
Conditions: for speed of sound: 100 kPa, Frequency=3 MHz, Sing-around technique in a fixed-path interferometer; for speed of sound / viscosity / mass density: Liquid; for viscosity / mass density: 102 kPa; for viscosity: Concentric cylinders viscometry; for mass density: Vibrating tube method; for surface tension liquid-gas: 294.5 K, Pendant drop shape

CCCCc1ccccc1 [butylbenzene] + CCCCCCCCCCCCCC
Conditions	mass density [kg/m3]	speed of sound [m/s]	viscosity [mPa·s]
293.15 K, x1 = 0.1414	770.92	1330.1	2.06
293.15 K, x1 = 0.2704	779.61	1329.5	1.86
293.15 K, x1 = 0.3915	788.74	1329.7	1.69
293.15 K, x1 = 0.4988	797.91	1330.9	1.55
293.15 K, x1 = 0.5961	807.14	1332.5	1.44
293.15 K, x1 = 0.6892	817.1	1334.9	1.34
293.15 K, x1 = 0.7751	827.32	1338.1	1.25
293.15 K, x1 = 0.8553	837.74	1342.1	1.18
293.15 K, x1 = 0.9299	849.02	1347.7	1.12
293.15 K, x1 = 1	860.51	1353.7	1.05
303.15 K, x1 = 0.1414	763.79	1292.6	1.7
303.15 K, x1 = 0.2704	772.41	1292.1	1.54
303.15 K, x1 = 0.3915	781.46	1292.3	1.42
303.15 K, x1 = 0.4988	790.54	1293.4	1.31
303.15 K, x1 = 0.5961	799.68	1294.9	1.22
303.15 K, x1 = 0.6892	809.54	1297.2	1.14
303.15 K, x1 = 0.7751	819.66	1300.2	1.07
303.15 K, x1 = 0.8553	829.96	1303.8	1.02
303.15 K, x1 = 0.9299	841.12	1309.2	0.965
303.15 K, x1 = 1	852.49	1314.9	0.91
313.15 K, x1 = 0.1414	756.65	1255.6	1.42
313.15 K, x1 = 0.2704	765.18	1255.1	1.31
313.15 K, x1 = 0.3915	774.14	1255.3	1.21
313.15 K, x1 = 0.4988	783.14	1256.3	1.12
313.15 K, x1 = 0.5961	792.18	1257.6	1.05
313.15 K, x1 = 0.6892	801.94	1259.8	0.987
313.15 K, x1 = 0.7751	811.95	1262.7	0.932
313.15 K, x1 = 0.8553	822.15	1266.1	0.886
313.15 K, x1 = 0.9299	833.19	1271.2	0.843
313.15 K, x1 = 1	844.43	1276.6	0.801
323.15 K, x1 = 0.1414	749.49	1219.1	1.21
323.15 K, x1 = 0.2704	757.94	1218.6	1.12
323.15 K, x1 = 0.3915	766.81	1218.7	1.04
323.15 K, x1 = 0.4988	775.71	1219.6	0.973
323.15 K, x1 = 0.5961	784.66	1220.9	0.915
323.15 K, x1 = 0.6892	794.32	1223	0.863
323.15 K, x1 = 0.7751	804.22	1225.6	0.818
323.15 K, x1 = 0.8553	814.31	1228.9	0.78
323.15 K, x1 = 0.9299	825.22	1233.7	0.744
323.15 K, x1 = 1	836.34	1238.7	0.713
333.15 K, x1 = 0.1414	742.31	1183.2	1.05
333.15 K, x1 = 0.2704	750.67	1182.7	0.973
333.15 K, x1 = 0.3915	759.45	1182.7	0.908
333.15 K, x1 = 0.4988	768.25	1183.5	0.853
333.15 K, x1 = 0.5961	777.11	1184.7	0.806
333.15 K, x1 = 0.6892	786.65	1186.6	0.762
333.15 K, x1 = 0.7751	796.45	1189.1	0.725
333.15 K, x1 = 0.8553	806.42	1192.1	0.691
333.15 K, x1 = 0.9299	817.22	1196.7	0.662
333.15 K, x1 = 1	828.21	1201.4	0.636
343.15 K, x1 = 0.1414	735.2	–	0.912
343.15 K, x1 = 0.2704	743.4	–	0.852
343.15 K, x1 = 0.3915	752	–	0.8
343.15 K, x1 = 0.4988	760.8	–	0.753
343.15 K, x1 = 0.5961	769.6	–	0.716
343.15 K, x1 = 0.6892	779	–	0.678
343.15 K, x1 = 0.7751	788.7	–	0.647
343.15 K, x1 = 0.8553	798.5	–	0.619
343.15 K, x1 = 0.9299	809.2	–	0.592
343.15 K, x1 = 1	819.9	–	0.571
353.15 K, x1 = 0.1414	728	–	0.804
353.15 K, x1 = 0.2704	736.1	–	0.754
353.15 K, x1 = 0.3915	744.6	–	0.711
353.15 K, x1 = 0.4988	753.3	–	0.671
353.15 K, x1 = 0.5961	762	–	0.639
353.15 K, x1 = 0.6892	771.3	–	0.608
353.15 K, x1 = 0.7751	780.9	–	0.581
353.15 K, x1 = 0.8553	790.6	–	0.557
353.15 K, x1 = 0.9299	801.1	–	0.534
353.15 K, x1 = 1	811.7	–	0.516
363.15 K, x1 = 0.1414	720.7	–	0.715
363.15 K, x1 = 0.2704	728.7	–	0.674
363.15 K, x1 = 0.3915	737.1	–	0.637
363.15 K, x1 = 0.4988	745.7	–	0.604
363.15 K, x1 = 0.5961	754.3	–	0.576
363.15 K, x1 = 0.6892	763.5	–	0.55
363.15 K, x1 = 0.7751	773	–	0.526
363.15 K, x1 = 0.8553	782.5	–	0.505
363.15 K, x1 = 0.9299	793	–	0.486
363.15 K, x1 = 1	803.4	–	0.469
373.15 K, x1 = 0.1414	713.3	–	0.641
373.15 K, x1 = 0.2704	721.2	–	0.606
373.15 K, x1 = 0.3915	729.5	–	0.575
373.15 K, x1 = 0.4988	738	–	0.547
373.15 K, x1 = 0.5961	746.5	–	0.523
373.15 K, x1 = 0.6892	755.6	–	0.5
373.15 K, x1 = 0.7751	764.9	–	0.48
373.15 K, x1 = 0.8553	774.3	–	0.461
373.15 K, x1 = 0.9299	784.7	–	0.444
373.15 K, x1 = 1	795	–	0.43

Conditions	surface tension liquid-gas [mN/m]
x1 = 0.1414	26.5
x1 = 0.2704	26.7
x1 = 0.3915	27
x1 = 0.4988	27
x1 = 0.5961	27.3
x1 = 0.6892	27.3
x1 = 0.7751	27.8
x1 = 0.8553	28
x1 = 0.9299	28.3
